Data as given in article PMC7873226, “Molecular mechanism and structural basis of small-molecule modulation of the gating of acid-sensing ion channel 1” (Communications Biology, 2021).
Read-outs that look alike come from different tables or passages of the source.

Columns and labels:
rat ASIC1a [1] = target: T1, rat ASIC1a (Rattus norvegicus, UniProt P55926); experiment: Whole-cell patch clamp: inhibition of acid-induced current in CHO cells stably expressing rat ASIC1a; assay type: cell-based
T1 construct: expressed in transfected cells
T1 sequence (P55926 1-526): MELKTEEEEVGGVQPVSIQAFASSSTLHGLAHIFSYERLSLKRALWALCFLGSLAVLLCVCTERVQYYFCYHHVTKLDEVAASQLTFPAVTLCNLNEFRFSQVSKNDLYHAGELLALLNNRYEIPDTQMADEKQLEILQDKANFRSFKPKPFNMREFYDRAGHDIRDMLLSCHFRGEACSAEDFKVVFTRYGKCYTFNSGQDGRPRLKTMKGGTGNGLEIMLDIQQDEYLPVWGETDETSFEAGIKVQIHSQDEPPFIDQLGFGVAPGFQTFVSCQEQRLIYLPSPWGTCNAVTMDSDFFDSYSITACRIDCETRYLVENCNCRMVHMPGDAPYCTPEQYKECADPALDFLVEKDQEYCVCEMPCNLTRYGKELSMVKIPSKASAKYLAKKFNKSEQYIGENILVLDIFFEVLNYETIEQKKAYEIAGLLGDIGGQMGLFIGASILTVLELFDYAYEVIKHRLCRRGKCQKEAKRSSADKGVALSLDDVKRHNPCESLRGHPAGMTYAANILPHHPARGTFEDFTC
Experimental: (§1) Chinese Hamster Ovary (CHO) cells stably expressing rat ASIC1a were cultured in Ham’s F12, supplemented with 10% FBS, 1% penicillin–streptomycin and 500 µg/mL G418 and incubated at 37 °C with 5% CO2. Transient transfections of rASIC1a and cASIC1 wild-type or mutant channels in CHO cells were performed with Lipofectamine 3000 (Thermo Fisher Scientific) according to the manufacturer’s recommendations. The green fluorescent protein (GFP) cDNA (at 1/10 the amount of channel cDNA) was co-transfected with channel cDNA to aid the identification of transfected cells under the microscope in patch clamp experiments. All cDNAs were sequence verified.
(§2) Cells were freshly dissociated with CellStripper (Corning) and dispersed in a chamber on the stage of an inverted microscope. Upon formation of the whole-cell conformation, the cell was lifted from the bottom of the chamber and placed at the tip of a tubing perfusing an extracellular solution containing (in mM): 149 NaCl, 2 CaCl2, 4 KCl, 1 MgCl2, 5 glucose, 10 HEPES, pH 7.4, 310 mOsm/L. Extracellular solutions at more basic or acidic pHs were made by titrating the above pH 7.4 solution with NaOH or HCl (5 mM MES was added to solutions at pH 6.0 and lower). Pipette electrodes were filled with an intracellular solution containing (in mM): 135 KCl, 4 MgATP, 0.3 Na2GTP, 10 EGTA, and 20 HEPES, pH 7.2, 290 mOsm/L.
(§3) All recordings were performed at room temperature using an Axopatch 200B amplifier and pClamp 11 software (Molecular Devices). Currents were measured by whole-cell patch clamp, digitized at 10 kHz and lowpass filtered at 2 kHz. Series resistance was 75% compensated. Responses were elicited by rapid perfusion of acidic solutions using the SF-77B Fast-Step Perfusion device (Warner Instruments) for 40 ms once every 30 s (unless indicated otherwise) and recorded till steady state was reached. The holding potential was 0 mV unless indicated otherwise.
(§4) Baseline values (i.e., current amplitudes at the conditioning pH) were subtracted to obtain responses evoked by the test pH. Responses were normalized for each cell before averaging (see figure legends for more detail on normalization for each type of experiment). Concentration–response data were fitted to a logistic function of the form: R = (A1–A2)/(1 + (C/C0)^h)+A2, where R is the normalized response, C is either pH or compound concentration, C0 is the pH/concentration at which half-maximal response occurs (pH50 or IC50), h is the Hill coefficient, and A1 and A2 are constants. Kinetic parameters were obtained by fitting the data with either a single or double exponential function. Fitted data are shown as solid, dashed, or dotted curves.

rat ASIC1a [2] = target: T1, rat ASIC1a; experiment: Kinetics of onset of and recovery (wash) from compound inhibition; assay type: cell-based; conditions: 100 nM; for pH 6.8-induced current, % pH7.4 control: holding pH 7.4, one cell; for pH 6.8-induced current, % pH8.2 control: holding pH 8.2, one cell
Experimental: as §1, §2, §3, §4

[3] = t = -50 s (wash starts at t = 0 s)

inhibition at 0.01 µM (rat ASIC1a [1]; CHO, pH 5, pH5.0, 10 nM, read-out: current inhibition, mean (source data Fig. 1e)): 8%
inhibition at 0.03 µM (rat ASIC1a [1]; CHO, pH 5, pH5.0, 30 nM, read-out: current inhibition, mean (source data Fig. 1e)): 15.3%
inhibition at 0.1 µM (rat ASIC1a [1]; CHO, pH 5, pH5.0, 100 nM, read-out: current inhibition, mean (source data Fig. 1e)): 20.5%
inhibition at 0.3 µM (rat ASIC1a [1]; CHO, pH 5, pH5.0, 300 nM, read-out: current inhibition, mean (source data Fig. 1e)): 25.2%
inhibition at 1 µM (rat ASIC1a [1]; CHO, pH 5, pH5.0, 1000 nM, read-out: current inhibition, mean (source data Fig. 1e)): 28.4%
inhibition at 0.01 µM (rat ASIC1a [1]; CHO, pH 6, pH6.0, 10 nM, read-out: current inhibition, mean (source data Fig. 1e)): 17.9%
inhibition at 0.03 µM (rat ASIC1a [1]; CHO, pH 6, pH6.0, 30 nM, read-out: current inhibition, mean (source data Fig. 1e)): 38.3%
inhibition at 0.1 µM (rat ASIC1a [1]; CHO, pH 6, pH6.0, 100 nM, read-out: current inhibition, mean (source data Fig. 1e)): 61.3%
inhibition at 0.3 µM (rat ASIC1a [1]; CHO, pH 6, pH6.0, 300 nM, read-out: current inhibition, mean (source data Fig. 1e)): 68.9%
inhibition at 1 µM (rat ASIC1a [1]; CHO, pH 6, pH6.0, 1000 nM, read-out: current inhibition, mean (source data Fig. 1e)): 71.7%
inhibition at 3 µM (rat ASIC1a [1]; CHO, pH 6, pH6.0, 3000 nM, read-out: current inhibition, mean (source data Fig. 1e)): 79.2%
inhibition at 0.01 µM (rat ASIC1a [1]; CHO, pH 6.8, 10 nM, 0 mV, read-out: inhibition of pH 6.8-induced current): 75.6 ± 6.9%
inhibition at 0.01 µM (rat ASIC1a [1]; CHO, pH 6.8, 10 nM, −80 mV, read-out: inhibition of pH 6.8-induced current): 78.2 ± 5%
inhibition at 0.001 µM (rat ASIC1a [1]; CHO, pH 6.8, pH6.8, 1 nM, read-out: current inhibition, mean (source data Fig. 1e)): 15.3%
inhibition at 0.003 µM (rat ASIC1a [1]; CHO, pH 6.8, pH6.8, 3 nM, read-out: current inhibition, mean (source data Fig. 1e)): 33.9%
inhibition at 0.01 µM (rat ASIC1a [1]; CHO, pH 6.8, pH6.8, 10 nM, read-out: current inhibition, mean (source data Fig. 1e)): 62.8%
inhibition at 0.03 µM (rat ASIC1a [1]; CHO, pH 6.8, pH6.8, 30 nM, read-out: current inhibition, mean (source data Fig. 1e)): 89.8%
inhibition at 0.1 µM (rat ASIC1a [1]; CHO, pH 6.8, pH6.8, 100 nM, read-out: current inhibition, mean (source data Fig. 1e)): 97.6%
inhibition at 0.003 µM (rat ASIC1a [1]; CHO, pH 7.1, pH7.1, 3 nM, read-out: current inhibition, mean (source data Fig. 1e)): 42.7%
inhibition at 0.01 µM (rat ASIC1a [1]; CHO, pH 7.1, pH7.1, 10 nM, read-out: current inhibition, mean (source data Fig. 1e)): 78.1%
inhibition at 0.03 µM (rat ASIC1a [1]; CHO, pH 7.1, pH7.1, 30 nM, read-out: current inhibition, mean (source data Fig. 1e)): 96.5%
inhibition at 0.1 µM (rat ASIC1a [1]; CHO, pH 7.1, pH7.1, 100 nM, read-out: current inhibition, mean (source data Fig. 1e)): 99.8%
IC50 (rat ASIC1a [1]; test pH 5.0, holding pH 8.2): 0.0344 ± 0.0076 µM
max %inhibition (rat ASIC1a [1]; test pH 5.0, holding pH 8.2): 30.4 ± 1.8%
max %inhibition (rat ASIC1a [1]; test pH 6.0, holding pH 8.2): 76.5 ± 2.2%
IC50 (rat ASIC1a [1]; test pH 6.0, holding pH 8.2, WT): 0.0289 ± 0.0036 µM
IC50 (rat ASIC1a [1]; test pH 6.8, holding pH 8.2): 0.0055 ± 0.0004 µM
max %inhibition (rat ASIC1a [1]; test pH 6.8, holding pH 8.2): 100%
IC50 (rat ASIC1a [1]; test pH 7.1, holding pH 8.2): 0.0038 ± 0.0002 µM
max %inhibition (rat ASIC1a [1]; test pH 7.1, holding pH 8.2): 100%
overshoot of maximum wash current above pre-block control level (rat ASIC1a [2]; holding pH 7.4): > 50%
pH 6.8-induced current, % pH7.4 control (rat ASIC1a [2]; t = 0 s): 4.9%
pH 6.8-induced current, % pH7.4 control (rat ASIC1a [2]; t = -10 s): 4.7%
pH 6.8-induced current, % pH7.4 control (rat ASIC1a [2]; t = -20 s): 3.6%
pH 6.8-induced current, % pH7.4 control (rat ASIC1a [2]; t = -30 s): 3.3%
pH 6.8-induced current, % pH7.4 control (rat ASIC1a [2]; t = -40 s): 4.5%
pH 6.8-induced current, % pH7.4 control (rat ASIC1a [2]; [3]): 6.7%
pH 6.8-induced current, % pH8.2 control (rat ASIC1a [2]; t = 0 s): 4.5%
pH 6.8-induced current, % pH8.2 control (rat ASIC1a [2]; t = -10 s): 7.4%
pH 6.8-induced current, % pH8.2 control (rat ASIC1a [2]; t = -20 s): 4.9%
pH 6.8-induced current, % pH8.2 control (rat ASIC1a [2]; t = -30 s): 4.9%
pH 6.8-induced current, % pH8.2 control (rat ASIC1a [2]; t = -40 s): 5.7%
pH 6.8-induced current, % pH8.2 control (rat ASIC1a [2]; [3]): 47.2%
time constant of current inhibition (rat ASIC1a [2]; holding pH 8.2, pH 6.0 test pulses): 3.6 ± 0.2 s
Structure (SMILES): Cc1cc(N2CC(Oc3cc(F)c4c(N)n[nH]c4c3)C2)c(F)cn1 [JNJ-67869386]
